Consider four molecules from ChEMBL document CHEMBL1124323, “Phenolic metabolites of clomiphene: [(E,Z)-2-[4-(1,2-diphenyl-2-chlorovinyl)phenoxy]ethyl]diethylamine. Preparation, electrophilicity, and effects in MCF 7 breast cancer cells” (J Med Chem, 1989).

By inhibition is commonly meant how much of the control response was suppressed. A higher inhibition goes with a strong effect. Broadly, the IC50 is the concentration that gives 50% inhibition. A high value points to lower potency.

Experiment [1] concerns MCF7S. As to the kind of experiment: cells. To be noted: Homo sapiens.
For experiment [2], the target named is T1, Anti-estrogen binding site (AEBS) (Homo sapiens, UniProt Q15125+Q9UBM7). As to the kind of experiment: Relative binding affinity for antiestrogen binding site compared to tamoxifen. In kind it is protein-complex assay.
Experiment [3] deals with T2, Estrogen receptor (Homo sapiens, UniProt Q92731+P03372). As to the kind of experiment: Displacement of [3H]-estradiol from estrogen receptor (ER). The format is protein assay. (Loss of bound radioactivity is the signal in a displacement assay; it reports binding, not function.)
Experiment [4] relates to MCF7S. As to the kind of experiment: Inhibition of MCF-7 cell proliferation at 5 uM. The format is functional. To be noted: Homo sapiens.
In experiment [5] the target is T1, Anti-estrogen binding site (AEBS). As to the kind of experiment: Displacement of [3H]tamoxifen from antiestrogen binding site (AEBS). The format is protein-complex assay.
Experiment [6] addresses T2, Estrogen receptor. As to the kind of experiment: Relative binding affinity for estrogen receptor compared to estradiol. In kind it is protein assay.

T1 sequence (Q15125 whole entry): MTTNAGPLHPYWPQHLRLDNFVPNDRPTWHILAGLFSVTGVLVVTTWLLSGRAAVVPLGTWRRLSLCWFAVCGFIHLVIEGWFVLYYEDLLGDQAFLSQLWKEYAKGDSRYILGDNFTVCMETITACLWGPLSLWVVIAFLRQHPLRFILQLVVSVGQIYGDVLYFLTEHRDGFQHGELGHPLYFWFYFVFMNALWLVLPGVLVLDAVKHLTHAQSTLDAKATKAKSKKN
T1 sequence (Q9UBM7 whole entry): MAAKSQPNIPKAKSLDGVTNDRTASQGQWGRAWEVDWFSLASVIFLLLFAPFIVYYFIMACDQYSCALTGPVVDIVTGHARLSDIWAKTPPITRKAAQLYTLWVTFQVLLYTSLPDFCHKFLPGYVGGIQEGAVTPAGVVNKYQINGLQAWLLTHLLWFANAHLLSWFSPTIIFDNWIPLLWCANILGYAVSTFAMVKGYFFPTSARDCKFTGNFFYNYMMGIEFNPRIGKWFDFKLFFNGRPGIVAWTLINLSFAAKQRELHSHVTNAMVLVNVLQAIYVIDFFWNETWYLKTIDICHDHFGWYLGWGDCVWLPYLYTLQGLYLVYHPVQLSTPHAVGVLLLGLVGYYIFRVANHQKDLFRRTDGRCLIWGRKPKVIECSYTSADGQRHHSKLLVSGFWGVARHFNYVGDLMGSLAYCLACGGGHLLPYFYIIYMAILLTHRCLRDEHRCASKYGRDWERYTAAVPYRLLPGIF

In experiment [1], `CCN(CC)CCOc1ccc(/C(=C(/Cl)c2ccc(O)cc2)c2ccccc2)cc1` showed an inhibition at 5 µM of 57%.
Consider `CCN(CC)CCOc1ccc(/C(=C(/Cl)c2ccc(O)c(OC)c2)c2ccccc2)cc1`, for which the Ratio in experiment [2] was 38. Further, the IC50 in experiment [3] is 3000 nM; in experiment [5] it was 32 nM. The molecule further registered an inhibition at 5 µM in experiment [4] of 49%.
For the molecule `CCN(CC)CCOc1ccc(/C(=C(/Cl)c2ccccc2)c2ccc(O)c(OC)c2)cc1` [3'-METHOXY-4'HYDROXYCLOMIPHENE], the Ratio in experiment [2] worked out at 55; in experiment [6], 0.4. Besides, the IC50 was found to be 780 nM in experiment [3] and 22 nM in experiment [5]. Moreover, the inhibition at 5 µM in experiment [1] turned out to be 76%.
Consider `CCN(CC)CCOc1ccc(C(=C(Cl)c2ccccc2)c2ccccc2)cc1` [CLOMIPHENE], for which the inhibition at 5 µM in experiment [1] was determined as 80%.
